Data published in patent US10954269B2, “Anti-inflammatory tripeptides” (Dr. August Wolff Gmbh & Co. KG Arzneimittel, priority 2013, dated 2021).

Experiments:
[1] = tested on: primary human T-cells; experiment: Cytokine secretion on protein level in activated primary human T-cells (13-plex FACS / Luminex, supernatant); type: cell-based; details: for IL-1 cytokine concentration / IL-2 cytokine concentration / IL-4 cytokine concentration / IL-5 cytokine concentration / IL-6 cytokine concentration / IL-9 cytokine concentration / IL-10 cytokine concentration / IL-12p70 cytokine concentration / IL-13 cytokine concentration / IL-17 cytokine concentration / IL-22 cytokine concentration / TNF-α cytokine concentration / INF-α cytokine concentration: substance 10^−9M
How it was run: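 Primary T-cells from peripheral blood of healthy volunteers, or HaCaT cells, were activated with PMA/Ionomycin or IFN-γ for 48 h and treated with tripeptides. Supernatants were collected 48 h and 72 h after stimulation and cytokines (IL-1, IL-2, IL-6, IL-12p70, IL-17, IFN-γ, TNF-α) were measured by 13-plex FACS.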

[2] = tested on: human keratinocyte cell line (HaCaT); experiment: Cytokine secretion on protein level in activated human keratinocyte cell line HaCaT (13-plex FACS / Luminex, supernatant); type: cell-based; details: for IL-1 cytokine concentration / IL-2 cytokine concentration / IL-4 cytokine concentration / IL-5 cytokine concentration / IL-6 cytokine concentration / IL-9 cytokine concentration / IL-10 cytokine concentration / IL-12p70 cytokine concentration / IL-13 cytokine concentration / IL-17 cytokine concentration / IL-22 cytokine concentration / TNF-α cytokine concentration / IFN-γ cytokine concentration: substance 10^−9M
How it was run: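 First, T-cells are isolated from healthy donors' blood. Next, they and HaCaT keratinocytes are activated for 48 h with PMA/Ionomycin or IFN-γ in the presence of tripeptides. Finally, secreted cytokines are quantified in supernatants by 13-plex FACS at 48 and 72 h.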

[3] = tested on: primary murine T-cells; experiment: Cytokine secretion on protein level in activated primary murine T-cells (13-plex FACS / Luminex, supernatant); type: cell-based, C57BL/6 mice; details: substance 10^−9M
How it was run: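 T-cells from secondary lymphatic organs of naïve C57BL/6 mice, stimulated with PMA/Ionomycin or IFN-γ; supernatant cytokines measured by 13-plex FACS 48 h and 72 h after stimulation. In another run, PMA/Ionomycin-stimulated cells received compounds at 10^−7, 10^−9 and 10^−11 M, with IFN-γ, IL-17 and IL-10 measured by Luminex.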

[4] = primary human T-cells stimulated with IFN-γ
[5] = primary human T-cells stimulated with PBS
[6] = primary human T-cells stimulated with PMA/Ionomycin
[7] = HaCaT stimulated with PMA/Ionomycin
[8] = primary murine T-cells stimulated with IFN-γ
[9] = primary murine T-cells stimulated with PBS
[10] = primary murine T-cells stimulated with PMA/Ionomycin

N^α,N^α-dimethyl-(L)-Nle-(D)-Pro-N^α-methyl-(L)-Thr-OH [Example 6]
secretion / expression of pro-inflammatory cytokines (supernatant) ([1]; activated primary human T-cells): decreased expression
IL-1 cytokine concentration [1, 4]: 0 pg/mL
IL-2 cytokine concentration [1, 4]: 0 pg/mL
IL-4 cytokine concentration [1, 4]: 76.04 pg/mL
IL-5 cytokine concentration [1, 4]: 0 pg/mL
IL-6 cytokine concentration [1, 4]: 45.83 pg/mL
IL-9 cytokine concentration [1, 4]: 0 pg/mL
IL-10 cytokine concentration [1, 4]: 51.86 pg/mL
IL-12p70 cytokine concentration [1, 4]: 0 pg/mL
IL-13 cytokine concentration [1, 4]: 46.95 pg/mL
IL-17 cytokine concentration [1, 4]: 36.76 pg/mL
IL-22 cytokine concentration [1, 4]: 0 pg/mL
TNF-α cytokine concentration [1, 4]: 17.44 pg/mL
IL-1 cytokine concentration [1, 5]: 107.12 pg/mL
IL-2 cytokine concentration [1, 5]: 114.93 pg/mL
IL-5 cytokine concentration [1, 5]: 12.74 pg/mL
IL-6 cytokine concentration [1, 5]: 105.53 pg/mL
IL-9 cytokine concentration [1, 5]: 8.15 pg/mL
IL-10 cytokine concentration [1, 5]: 92.62 pg/mL
IL-12p70 cytokine concentration [1, 5]: 0 pg/mL
IL-13 cytokine concentration [1, 5]: 0 pg/mL
IL-17 cytokine concentration [1, 5]: 113.52 pg/mL
IL-22 cytokine concentration [1, 5]: 0 pg/mL
INF-α cytokine concentration [1, 5]: 0 pg/mL
TNF-α cytokine concentration [1, 5]: 28.11 pg/mL
IL-1 cytokine concentration [1, 6]: 533.57 pg/mL
IL-2 cytokine concentration [1, 6]: 2005.81 pg/mL
IL-4 cytokine concentration [1, 6]: 87.24 pg/mL
IL-5 cytokine concentration [1, 6]: 312.5 pg/mL
IL-6 cytokine concentration [1, 6]: 1194.58 pg/mL
IL-9 cytokine concentration [1, 6]: 238.28 pg/mL
IL-10 cytokine concentration [1, 6]: 999.32 pg/mL
IL-12p70 cytokine concentration [1, 6]: 0 pg/mL
IL-13 cytokine concentration [1, 6]: 1050.19 pg/mL
IL-17 cytokine concentration [1, 6]: 1388.88 pg/mL
IL-22 cytokine concentration [1, 6]: 0 pg/mL
INF-α cytokine concentration [1, 6]: 7597.87 pg/mL
TNF-α cytokine concentration [1, 6]: 2638.52 pg/mL
IL-1 cytokine concentration ([2]; HaCaT stimulated with IFN-γ): 0 pg/mL
IL-2 cytokine concentration ([2]; HaCaT stimulated with IFN-γ): 17.47 pg/mL
IL-4 cytokine concentration ([2]; HaCaT stimulated with IFN-γ): 0 pg/mL
IL-5 cytokine concentration ([2]; HaCaT stimulated with IFN-γ): 0 pg/mL
IL-6 cytokine concentration ([2]; HaCaT stimulated with IFN-γ): 202.37 pg/mL
IL-9 cytokine concentration ([2]; HaCaT stimulated with IFN-γ): 0 pg/mL
IL-10 cytokine concentration ([2]; HaCaT stimulated with IFN-γ): 0 pg/mL
IL-12p70 cytokine concentration ([2]; HaCaT stimulated with IFN-γ): 0 pg/mL
IL-13 cytokine concentration ([2]; HaCaT stimulated with IFN-γ): 1872.11 pg/mL
IL-17 cytokine concentration ([2]; HaCaT stimulated with IFN-γ): 0 pg/mL
IL-22 cytokine concentration ([2]; HaCaT stimulated with IFN-γ): 0 pg/mL
TNF-α cytokine concentration ([2]; HaCaT stimulated with IFN-γ): 0 pg/mL
IFN-γ cytokine concentration ([2]; HaCaT stimulated with PBS): 0 pg/mL
IL-1 cytokine concentration ([2]; HaCaT stimulated with PBS): 25.45 pg/mL
IL-2 cytokine concentration ([2]; HaCaT stimulated with PBS): 0 pg/mL
IL-4 cytokine concentration ([2]; HaCaT stimulated with PBS): 91.99 pg/mL
IL-5 cytokine concentration ([2]; HaCaT stimulated with PBS): 0 pg/mL
IL-6 cytokine concentration ([2]; HaCaT stimulated with PBS): 52.48 pg/mL
IL-9 cytokine concentration ([2]; HaCaT stimulated with PBS): 0 pg/mL
IL-10 cytokine concentration ([2]; HaCaT stimulated with PBS): 57.95 pg/mL
IL-12p70 cytokine concentration ([2]; HaCaT stimulated with PBS): 0 pg/mL
IL-13 cytokine concentration ([2]; HaCaT stimulated with PBS): 0 pg/mL
IL-17 cytokine concentration ([2]; HaCaT stimulated with PBS): 26.72 pg/mL
IL-22 cytokine concentration ([2]; HaCaT stimulated with PBS): 0 pg/mL
TNF-α cytokine concentration ([2]; HaCaT stimulated with PBS): 8.21 pg/mL
IFN-γ cytokine concentration [2, 7]: 0 pg/mL
IL-1 cytokine concentration [2, 7]: 62.07 pg/mL
IL-2 cytokine concentration [2, 7]: 16.53 pg/mL
IL-4 cytokine concentration [2, 7]: 0 pg/mL
IL-5 cytokine concentration [2, 7]: 0 pg/mL
IL-6 cytokine concentration [2, 7]: 248.33 pg/mL
IL-9 cytokine concentration [2, 7]: 3.71 pg/mL
IL-10 cytokine concentration [2, 7]: 64.03 pg/mL
IL-12p70 cytokine concentration [2, 7]: 0 pg/mL
IL-13 cytokine concentration [2, 7]: 0 pg/mL
IL-17 cytokine concentration [2, 7]: 21.52 pg/mL
IL-22 cytokine concentration [2, 7]: 0 pg/mL
TNF-α cytokine concentration [2, 7]: 5.37 pg/mL
secretion / expression of pro-inflammatory cytokines (supernatant) ([2]; activated human keratinocytes): decreased expression
IL-1 cytokine concentration [3, 8]: 95.15 pg/mL
IL-2 cytokine concentration [3, 8]: 181.25 pg/mL
IL-4 cytokine concentration [3, 8]: 156.84 pg/mL
IL-5 cytokine concentration [3, 8]: 517.47 pg/mL
IL-6 cytokine concentration [3, 8]: 223.98 pg/mL
IL-10 cytokine concentration [3, 8]: 1782.7 pg/mL
IL-13 cytokine concentration [3, 8]: 0 pg/mL
IL-17 cytokine concentration [3, 8]: 189.88 pg/mL
IL-21 cytokine concentration [3, 8]: 251.06 pg/mL
IL-22 cytokine concentration [3, 8]: 73.27 pg/mL
IL-27 cytokine concentration [3, 8]: 0 pg/mL
TNF-α cytokine concentration [3, 8]: 40.87 pg/mL
IFN-γ cytokine concentration [3, 9]: 546.71 pg/mL
IL-1 cytokine concentration [3, 9]: 106.27 pg/mL
IL-2 cytokine concentration [3, 9]: 204.71 pg/mL
IL-4 cytokine concentration [3, 9]: 39.23 pg/mL
IL-5 cytokine concentration [3, 9]: 407.29 pg/mL
IL-6 cytokine concentration [3, 9]: 170.46 pg/mL
IL-10 cytokine concentration [3, 9]: 1391.3 pg/mL
IL-13 cytokine concentration [3, 9]: 0 pg/mL
IL-17 cytokine concentration [3, 9]: 0 pg/mL
IL-21 cytokine concentration [3, 9]: 0 pg/mL
IL-22 cytokine concentration [3, 9]: 16.55 pg/mL
IL-27 cytokine concentration [3, 9]: 108.06 pg/mL
TNF-α cytokine concentration [3, 9]: 0 pg/mL
IFN-γ cytokine concentration [3, 10]: 8164.35 pg/mL
IL-1 cytokine concentration [3, 10]: 486.85 pg/mL
IL-2 cytokine concentration [3, 10]: 218.69 pg/mL
IL-4 cytokine concentration [3, 10]: 164.69 pg/mL
IL-5 cytokine concentration [3, 10]: 380.37 pg/mL
IL-6 cytokine concentration [3, 10]: 237.95 pg/mL
IL-10 cytokine concentration [3, 10]: 988.64 pg/mL
IL-13 cytokine concentration [3, 10]: 0 pg/mL
IL-17 cytokine concentration [3, 10]: 200.32 pg/mL
IL-21 cytokine concentration [3, 10]: 470.65 pg/mL
IL-22 cytokine concentration [3, 10]: 85.67 pg/mL
IL-27 cytokine concentration [3, 10]: 95.51 pg/mL
TNF-α cytokine concentration [3, 10]: 72.81 pg/mL
